PubChem BioAssay AID1259407 (Chemical Carcinogenesis Research Information System (CCRIS), 2018)
Activity calls are given as the source filed them. The rule behind the calls is not given here.

Tested on: CCRIS mutagenicity, Ames/micronucleus/aberration tests
Assay: CCRIS mutagenicity studies
[1] = Test System: AMES SALMONELLA TYPHIMURIUM, Strain/Indicator: TA98, Metabolic Activation: NONE, Method: STANDARD PLATE
[2] = Test System: AMES SALMONELLA TYPHIMURIUM, Strain/Indicator: TA98, Metabolic Activation: RAT, LIVER, S-9, AROCLOR 1254, Method: STANDARD PLATE
[3] = Test System: AMES SALMONELLA TYPHIMURIUM, Strain/Indicator: TA100, Metabolic Activation: NONE, Method: STANDARD PLATE
[4] = Test System: AMES SALMONELLA TYPHIMURIUM, Strain/Indicator: TA100, Metabolic Activation: RAT, LIVER, S-9, AROCLOR 1254, Method: STANDARD PLATE
[5] = Test System: AMES SALMONELLA TYPHIMURIUM, Strain/Indicator: TA100, Metabolic Activation: NONE, Method: PREINCUBATION
[6] = Test System: AMES SALMONELLA TYPHIMURIUM, Strain/Indicator: TA97A, Metabolic Activation: NONE, Method: STANDARD PLATE
[7] = Test System: AMES SALMONELLA TYPHIMURIUM, Strain/Indicator: TA102, Metabolic Activation: RAT, LIVER, S-9, AROCLOR 1254, Method: STANDARD PLATE
[8] = Test System: AMES SALMONELLA TYPHIMURIUM, Strain/Indicator: TA98, Metabolic Activation: S-9, Method: STANDARD PLATE
[9] = Test System: AMES SALMONELLA TYPHIMURIUM, Strain/Indicator: TA100, Metabolic Activation: S-9, Method: STANDARD PLATE

Which results are given for `COc1cc(C[C@@H](CO)[C@H](CO)Cc2ccc(O)c(OC)c2)ccc1O`?
mutagenic call (Test System: CHINESE HAMSTER V79 CELLS, Strain/Indicator: V79 CELLS (HPRT)/6-THIOGUANINE, Metabolic Activation: NONE, Method: SUSPENSION/PLATE): inactive; negative; mutagenic call (Test System: CHINESE HAMSTER V-79, Strain/Indicator: V-79 (HPRT)/6-THIOGUANINE, Metabolic Activation: NONE): inactive; negative

`Nc1cc(CCO)c(N)c([N+](=O)[O-])c1` was tested. Which mutagenic call [1] did it give?
The mutagenic call was “active; positive”.

And the mutagenic call [2]?
The mutagenic call was “active; positive”.

And the mutagenic call [3]?
Its mutagenic call is “inactive; negative”.

And the mutagenic call [4]?
The mutagenic call was “active; positive”.

What about the mutagenic call (Test System: AMES SALMONELLA TYPHIMURIUM, Strain/Indicator: TA1535, Metabolic Activation: NONE, Method: STANDARD PLATE) of the same compound?
The mutagenic call was “inactive; negative”.

And the mutagenic call (Test System: AMES SALMONELLA TYPHIMURIUM, Strain/Indicator: TA1535, Metabolic Activation: RAT, LIVER, S-9, AROCLOR 1254, Method: STANDARD PLATE)?
The mutagenic call was “inactive; negative”.

And the mutagenic call (Test System: AMES SALMONELLA TYPHIMURIUM, Strain/Indicator: TA1537, Metabolic Activation: NONE, Method: STANDARD PLATE)?
Its mutagenic call is “inactive; negative”.

What about the mutagenic call (Test System: AMES SALMONELLA TYPHIMURIUM, Strain/Indicator: TA1537, Metabolic Activation: RAT, LIVER, S-9, AROCLOR 1254, Method: STANDARD PLATE) of the same compound?
The mutagenic call was “inactive; negative”.

What about the mutagenic call (Test System: AMES SALMONELLA TYPHIMURIUM, Strain/Indicator: TA1538, Metabolic Activation: NONE, Method: STANDARD PLATE) of the same compound?
Its mutagenic call is “active; positive”.

What about the mutagenic call (Test System: AMES SALMONELLA TYPHIMURIUM, Strain/Indicator: TA1538, Metabolic Activation: RAT, LIVER, S-9, AROCLOR 1254, Method: STANDARD PLATE) of the same compound?
Its mutagenic call is “active; positive”.

Which results are given for `CCCCCC[C@@H](O)[C@@H]1C2=C(C[C@H]([C@H](O)[C@@H]3CC=CC(=O)O3)CC3=C(C(=O)OC3=O)[C@@H]1O)C(=O)OC2=O`?
mutagenic call [5]: inactive; negative; mutagenic call (Test System: AMES SALMONELLA TYPHIMURIUM, Strain/Indicator: TA100, Metabolic Activation: RAT, LIVER, S-9, PHENOBARBITAL, Method: PREINCUBATION): inactive; negative

Which mutagenic call (Test System: AMES SALMONELLA TYPHIMURIUM, Strain/Indicator: TM677, Metabolic Activation: RAT, LIVER, S-9, AROCLOR 1254, Method: PREINCUBATION) does the source give for `C[C@@]12CC[C@@H]3[C@@](CC[C@H]4[C@@]3(C)CCC[C@@]4(C)C(=O)O)(CC1=O)C2` here?
The mutagenic call was “inactive; negative”.

What does the source list for `COCC(=O)O`?
mutagenic call [6]: inactive; negative; mutagenic call (Test System: AMES SALMONELLA TYPHIMURIUM, Strain/Indicator: TA97A, Metabolic Activation: RAT, LIVER, S-9, AROCLOR 1254, Method: STANDARD PLATE): inactive; negative; mutagenic call [1]: inactive; negative; mutagenic call [2]: inactive; negative; mutagenic call [3]: inactive; negative; mutagenic call [4]: inactive; negative; mutagenic call (Test System: AMES SALMONELLA TYPHIMURIUM, Strain/Indicator: TA102, Metabolic Activation: NONE, Method: STANDARD PLATE): inactive; negative; mutagenic call [7]: inactive; negative; mutagenic call (Test System: CHINESE HAMSTER OVARY, Strain/Indicator: CHO AS52 (GPT)/6-THIOGUANINE, Metabolic Activation: NONE): inactive; negative; mutagenic call (Test System: CHINESE HAMSTER OVARY, Strain/Indicator: CHO-K1-BH4 (HGPRT)/6-THIOGUANINE, Metabolic Activation: NONE): inactive; negative; mutagenic call (Test System: CHINESE HAMSTER OVARY, Strain/Indicator: CHO-K1-BH4 (HGPRT)/6-THIOGUANINE, Metabolic Activation: RAT, LIVER, S-9, AROCLOR 1254): inactive; negative

For `O=[N+]([O-])c1ccc2c(ccc3cc4c(ccc5ccccc54)cc32)c1`, which mutagenic call (Test System: AMES SALMONELLA TYPHIMURIUM, Strain/Indicator: TA98(1,8-DNP6), Metabolic Activation: NONE) is on record?
Its mutagenic call is “active; positive”.

And the mutagenic call (Test System: AMES SALMONELLA TYPHIMURIUM, Strain/Indicator: TA98(1,8-DNP6), Metabolic Activation: RAT, LIVER, S-9, AROCLOR 1254)?
The mutagenic call was “active; positive”.

And the mutagenic call (Test System: AMES SALMONELLA TYPHIMURIUM, Strain/Indicator: TA98(NR), Metabolic Activation: NONE)?
The mutagenic call was “active; positive”.

And the mutagenic call (Test System: AMES SALMONELLA TYPHIMURIUM, Strain/Indicator: TA98(NR), Metabolic Activation: RAT, LIVER, S-9, AROCLOR 1254)?
Its mutagenic call is “active; positive”.

What about the mutagenic call (Test System: AMES SALMONELLA TYPHIMURIUM, Strain/Indicator: TA98, Metabolic Activation: NONE) of the same compound?
The mutagenic call was “active; positive”.

What about the mutagenic call (Test System: AMES SALMONELLA TYPHIMURIUM, Strain/Indicator: TA98, Metabolic Activation: RAT, LIVER, S-9, AROCLOR 1254) of the same compound?
Its mutagenic call is “active; positive”.

What about the mutagenic call (Test System: AMES SALMONELLA TYPHIMURIUM, Strain/Indicator: TA100(NR), Metabolic Activation: NONE) of the same compound?
Its mutagenic call is “inactive; negative”.

And the mutagenic call (Test System: AMES SALMONELLA TYPHIMURIUM, Strain/Indicator: TA100(NR), Metabolic Activation: RAT, LIVER, S-9, AROCLOR 1254)?
Its mutagenic call is “active; positive”.

What about the mutagenic call (Test System: AMES SALMONELLA TYPHIMURIUM, Strain/Indicator: TA100, Metabolic Activation: NONE) of the same compound?
Its mutagenic call is “inactive; negative”.

What about the mutagenic call (Test System: AMES SALMONELLA TYPHIMURIUM, Strain/Indicator: TA100, Metabolic Activation: RAT, LIVER, S-9, AROCLOR 1254) of the same compound?
Its mutagenic call is “active; positive”.

What about the mutagenic call (Test System: AMES SALMONELLA TYPHIMURIUM, Strain/Indicator: TA104, Metabolic Activation: NONE) of the same compound?
Its mutagenic call is “inactive; negative”.

And the mutagenic call (Test System: AMES SALMONELLA TYPHIMURIUM, Strain/Indicator: TA104, Metabolic Activation: RAT, LIVER, S-9, AROCLOR 1254)?
The mutagenic call was “active; positive”.

Which results are given for `Nc1ccc(N(c2ccc3ccccc3c2)c2ccc3ccccc3c2)cc1`?
mutagenic call [1]: inactive; negative; mutagenic call [8]: inactive; negative; mutagenic call [3]: inactive; negative; mutagenic call [9]: inactive; negative

Which results are given for `Nc1ccc(/C=C\c2ccc([N+](=O)[O-])cc2)cc1`?
mutagenic call (Test System: AMES SALMONELLA TYPHIMURIUM, Strain/Indicator: TA98(1,8-DNP6), Metabolic Activation: NONE, Method: STANDARD PLATE): inactive; negative; mutagenic call (Test System: AMES SALMONELLA TYPHIMURIUM, Strain/Indicator: TA98(1,8-DNP6), Metabolic Activation: S-9, Method: STANDARD PLATE): active; positive; mutagenic call [1]: active; positive; mutagenic call [2]: active; positive; mutagenic call [8]: active; positive; mutagenic call [3]: inactive; negative; mutagenic call [4]: active; positive; mutagenic call [9]: active; positive

Which results are given for `COC1=CC(=O)c2c(nc(C)c3c2[nH]c2ccccc23)C1=O`?
mutagenic call (Test System: AMES SALMONELLA TYPHIMURIUM, Strain/Indicator: TA97, Metabolic Activation: NONE, Method: STANDARD PLATE): active; positive; mutagenic call (Test System: AMES SALMONELLA TYPHIMURIUM, Strain/Indicator: TA97, Metabolic Activation: RAT, LIVER, S-9, AROCLOR 1254, Method: STANDARD PLATE): active; positive; mutagenic call [6]: active; positive; mutagenic call (Test System: AMES SALMONELLA TYPHIMURIUM, Strain/Indicator: TA97A, Metabolic Activation: RAT LIVER S-9, AROCLOR 1254, Method: STANDARD PLATE): active; positive; mutagenic call [1]: active; positive; mutagenic call (Test System: AMES SALMONELLA TYPHIMURIUM, Strain/Indicator: TA98, Metabolic Activation: RAT LIVER S-9, AROCLOR 1254, Method: STANDARD PLATE): active; positive; mutagenic call [2]: active; positive; mutagenic call [3]: active; positive; mutagenic call (Test System: AMES SALMONELLA TYPHIMURIUM, Strain/Indicator: TA100, Metabolic Activation: RAT LIVER S-9, AROCLOR 1254, Method: STANDARD PLATE): active; positive; mutagenic call [4]: active; positive; mutagenic call (Test System: AMES SALMONELLA TYPHIMURIUM, Strain/Indicator: TA102, Metabolic Activation: RAT LIVER S-9, AROCLOR 1254, Method: STANDARD PLATE): inactive; negative; mutagenic call [7]: inactive; negative

How did the mutagenic call (Test System: AMES SALMONELLA TYPHIMURIUM, Strain/Indicator: TA98, Metabolic Activation: NONE, Method: PREINCUBATION) turn out when `CCN(CC)S(=O)(=O)c1ccc(NC(C)=O)cc1` was run?
Its mutagenic call is “inactive; negative”.

And the mutagenic call (Test System: AMES SALMONELLA TYPHIMURIUM, Strain/Indicator: TA98, Metabolic Activation: RAT, LIVER, S-9, AROCLOR 1254, Method: PREINCUBATION)?
The mutagenic call was “inactive; negative”.

What about the mutagenic call [5] of the same compound?
The mutagenic call was “inactive; negative”.

What about the mutagenic call (Test System: AMES SALMONELLA TYPHIMURIUM, Strain/Indicator: TA100, Metabolic Activation: RAT, LIVER, S-9, AROCLOR 1254, Method: PREINCUBATION) of the same compound?
The mutagenic call was “inactive; negative”.
